Tested on: mouse brain tissues (cerebral parenchyma)
Assay: Brain-localizing peptide conjugates bound to gold colloids administered to mice; transmission electron microscopy of brain tissue sections
Type: in vivo
Conditions: biotin-conjugated peptide + avidin-gold particles administered to mice; electron micrographs, hippocampal pyramidal cells and cerebellar Purkinje cell region
Excerpt: The present inventors produced brain-localizing peptide conjugates. The conjugates are molecules that can have a cyclic structure due to the formation of a disulfide bond between cysteine residues in a peptide molecule of the present invention, and may also have biotin attached to them. The conjugates have affinity to avidin compounds.
The conjugates were bound to gold colloids and administered to mice, and the mice were subjected to experiments that evaluate the brain-localizing activity of the peptides of the present invention (observation of brain tissue sections under a transmission electron microscope).
[Section Preparation] • (i) trimming • (ii) preparation of thick sections (2 to 3 μm thick) using a glass knife • (iii) preparation of ultra-thin sections (50 to 100 nm thick) using a diamond knife • (iv) electron staining: 2% uranium acetate and then 1% lead citrate (3 minutes each) • (v) transmission electron microscope observation (acceleration voltage of 80 kV)
In the present experiment, T2J002 (SEQ ID NO: 2) and T2J004 (SEQ ID NO: 4) were used as peptides of the present invention. The arrows show positions of the gold particle-bound peptide molecules of the present invention. […] More specifically, the peptides of the present invention were confirmed to have brain-localizing activity.

With CSLNTRSQC [T2J002] the “transport of gold colloids into the cerebral parenchyma (brain-localizing activity)” value was “successfully transport the gold colloids into the cerebral parenchyma”.
In the case of CVVRHLQQC [T2J004], the “transport of gold colloids into the cerebral parenchyma (brain-localizing activity)” value was “successfully transport the gold colloids into the cerebral parenchyma”.
